Test results taken from patent publication US11064701B2, “Benzoxaborole compounds” (BASF SE, priority 2016, dated 2021).

How the values were obtained:
Assay in all cases: greenhouse post-emergence herbicidal test
Assay type in all cases: in vivo
Conditions in all cases: application rate 2 kg/ha, post-emergence method; scale 0 to 100 (100 = complete destruction)
Abutilon theophrasti = tested on: Abutilon theophrasti
Source text: (§1) The seeds of the test plants were sown separately for each species. For the post-emergence treatment, the test plants were first grown to a height of 3 to 8 cm, depending on the plant habit, and only then treated with the active ingredients which had been suspended or emulsified in water. For this purpose, the test plants were either sown directly and grown in the same containers, or they were first grown separately as seedlings and transplanted into the test containers a few days prior to treatment. Depending on the species, the plants were kept at 10-25° C. or 20-35° C., respectively. The test period extended over 2 to 4 weeks. During this time, the plants were tended, and their response to the individual treatments was evaluated. Evaluation was carried out using a scale from 0 to 100. 100 means no emergence of the plants, or complete destruction of at least the aerial moieties, and 0 means no damage, or normal course of growth. A moderate herbicidal activity is given at values of at least 60, a good herbicidal activity is given at values of at least 70, and a very good herbicidal activity is given at values of at least 85. The plants used in the greenhouse experiments were of the following species: [table]

Setaria viridis = tested on: Setaria viridis
Source text: as §1

Amaranthus retroflexus = tested on: Amaranthus retroflexus
Source text: as §1

Echinocloa crus-galli = tested on: Echinocloa crus-galli
Source text: as §1

Alopecurus myosuroides = tested on: Alopecurus myosuroides
Source text: as §1

Avena fatua = tested on: Avena fatua
Source text: as §1

SMILES | herbicidal activity against Abutilon theophrasti (Abutilon theophrasti) [%] | herbicidal activity against Setaria viridis (Setaria viridis) [%] | herbicidal activity against Amaranthus retroflexus (Amaranthus retroflexus) [%] | herbicidal activity against Echinocloa crus-galli (Echinocloa crus-galli) [%] | herbicidal activity against Alopecurus myosuroides (Alopecurus myosuroides) [%] | herbicidal activity against Avena fatua (Avena fatua) [%]
CCOC(=O)C(F)Oc1ccc2c(c1)B(O)OC2 (stereo not shown) [I-26] | 90 | 85 | 100 |  |  | 
O=C(O)COc1c(Cl)cc2c(c1Cl)B(O)OC2 [I-15] |  | 90 | 100 | 85 |  | 
CC(Oc1c(F)cc2c(c1F)B(O)OC2)C(=O)O (stereo not shown) [I-30] | 95 |  | 100 |  | 85 | 
O=C(O)COc1cc2c(cc1F)COB2O [I-6] | 100 | 100 | 100 | 98 | 90 | 98
COC(=O)COc1c(F)c(F)c2c(c1F)B(O)OC2 [I-39] |  | 100 | 100 |  |  | 
O=C(O)CS(=O)(=O)c1cc2c(cc1F)COB2O [I-37] |  |  | 100 |  |  | 
CCOC(=O)C(C)(C)Oc1ccc2c(c1)B(O)OC2 [I-2] |  |  | 100 |  |  | 
COC(=O)C(Oc1cc2c(cc1F)COB2O)C(=O)OC [I-10] |  | 95 | 90 |  |  | 
O=C(O)CSc1cc2c(cc1F)COB2O [I-22] | 100 | 100 | 100 |  |  | 
O=C(O)COc1c(F)cc2c(c1F)B(O)OC2 [I-24] | 100 | 95 | 100 |  |  | 
O=C(O)COc1c(F)c(F)c2c(c1F)B(O)OC2 [I-33] | 98 | 98 | 100 |  |  | 
COC(=O)COc1cc2c(cc1F)COB2O [I-5] | 100 | 98 | 100 | 98 | 98 | 98
COC(=O)COc1c(F)cc2c(c1F)B(O)OC2 [I-29] |  | 100 | 100 | 95 |  | 
CC(C)(Oc1ccc2c(c1)B(O)OC2)C(=O)O [I-4] | 85 |  |  | 85 |  | 
O=C(O)COc1cc2c(cc1Cl)COB2O [I-8] | 100 | 95 | 100 | 100 | 98 | 98
COC(=O)C(C)Oc1c(F)cc2c(c1F)B(O)OC2 (stereo not shown) [I-35] | 100 | 98 | 100 |  |  | 
O=C(O)CCCOc1cc2c(cc1F)COB2O [I-25] |  | 95 | 95 |  |  | 
COC(=O)CS(=O)(=O)c1cc2c(cc1F)COB2O [I-42] | 100 |  | 100 |  |  | 
O=C(O)COc1ccc2c(c1)B(O)OC2 [I-1] | 90 | 100 | 100 | 100 |  | 90
COC(=O)COc1ccc2c(c1)B(O)OC2 [I-3] | 100 | 100 | 100 | 98 |  | 90
COC(=O)COc1cc2c(cc1Cl)COB2O [I-7] | 100 | 100 | 100 | 100 | 95 | 98
COC(=O)CSc1cc2c(cc1F)COB2O [I-28] | 100 | 100 | 100 |  |  | 
